Where “and” joins values, the source holds several entries; their conditions need not be identical. Equal entries are not always repeated.
Test system: Caco-2/monocytes co-culture
Assay: Multiplex xMAP cytokine levels, Caco-2/monocytes co-culture stimulated with LL-37
Format: cell-based, human
Conditions: monocytes/Caco-2 co-culture, 1 µM LL-37, 24 h, n=2
Procedure: Caco-2 cell line (ATCC HTB-37) was cultured in a humidified CO2-incubator (5% CO2, 37 °C) in the complete DMEM/F12 (1:1) medium (Gibco, Waltham, MA, USA) containing 10% fetal bovine serum (FBS, Gibco) and 1X antibiotic–antimycotic solution (Gibco). To stabilize the cell phenotype, Caco-2 cells have been subcultivated three times before seeding on the filter supports. Then, Caco-2 cells were seeded at a density of 2 × 10^5 cells/cm^2 onto 24-well Millicell cell culture inserts (PC, 0.4-μm pore size, 0.6 cm^2 surface area, cat. #PIHP01250) (Millipore, Burlington, MA, USA), precoated with 0.2% bovine gelatin (Sigma-Aldrich, Saint Louis, MO, USA). After seeding, Caco-2 cells were grown in the same complete medium with re-feeding every 2–3 days until polarization of the monolayer occurred. The functional polarity of the monolayers was developed when transepithelial electrical resistance (TEER) between the apical and basolateral surfaces of the monolayers reached […] as measured by the electrical resistance system Millicell-ERS Voltohmmeter (Millipore, Burlington, MA, USA). Grown cell monolayers were used in transport and cytokine production experiments between the 21st and 29th days.
Peripheral blood mononuclear cells (PBMCs) from a healthy donor were purchased from the American Type Culture Collection (ATCC PCS-800-011). Blood monocytes were isolated from PBMCs by plastic adhesion. Mature monocyte-derived dendritic cells (moDCs) were generated in vitro from peripheral blood monocytes, according to Nair et al.. Briefly, monocytes were cultured in a humidified CO2-incubator (5% CO2, 37 °C) in the complete RPMI-1640 medium (Gibco) with 10% FBS, antibiotics, and supplemented with a cytokine cocktail containing 500 U/mL rhIL-4 and 800 U/mL rhGM-CSF (both Sci-Store, Moscow, Russia). On the third day, the medium was replaced by the same fresh medium with FBS, antibiotics, and the cytokine cocktail. Induction of maturation of the immature monocyte-derived dendritic cells was performed on the 5th day by replacing the medium with the complete RPMI-1640 medium (Gibco) with 10% FBS and antibiotics, supplemented with a cytokine cocktail containing 500 U/mL rhIL-4, 800 U/mL rhGM-CSF (both Sci-Store, Moscow, Russia), and 100 U/mL rhTNF-α (Sigma-Aldrich), and subjected to subsequent incubation of the culture for 4 more days.
Primary blood monocytes, moDCs, and NKT cells were seeded in 600 µL of complete RPMI-1640 with 10% Human AB serum (Capricorn Scientific, Ebsdorfergrund, Germany) and supplemented with 1X antibiotic–antimycotic solution into the wells of 24-well plates at a density of 3–7 × 10^5 cells/well 24 h before the experiment. Then, 24 h later, the medium in each well was replaced by the same medium with 1 µM of LL-37 for the sample wells or fresh medium alone for the control wells, and the permeable inserts with the Caco-2 monolayer with TEER > 400 Ω × cm^2, containing 400 μL of the complete medium in their apical chamber, were immediately placed into the appropriate wells. Also, inserts with the Caco-2 monolayer were placed in cell-free wells of 24-well plates in the same complete RPMI-1640 medium with or without 1 µM of LL-37 as controls. Cells were kept in a CO2-incubator (5% CO2, 37 °C) for another 24 h. Then, culture medium from each well was collected, centrifuged, and frozen at −70 °C.
To quantitatively evaluate a broad spectrum of analytes secreted by human cell cultures at the protein level, multiplex xMAP technology was used. […]

“LL-37: the only human cathelicidin, host defense antimicrobial peptide of 37 a.a. residues, produced by solid-phase peptide synthesis” was tested, and the IL-2 level (control 1.07) was 1.07 pg/mL, the FLT-3L level (control 1.18) was 1.37 pg/mL and the IFNg level (control 1.33) was 2.28 pg/mL. It also gave an IL-15 level (control 1.67) of 2.58 pg/mL, an IL-18 level (control 3.28) of 2.42 pg/mL and a TGF-a level (control 3.5) of 3.88 pg/mL. For the same substance, the GM-CSF level (control 3.75) was 18.58 pg/mL, the IL-4 level (control 6.54) was 8.01 pg/mL and the IL-9 level (control 6.65) was 8.94 pg/mL. The EGF level (control 8.06) was 10.26 pg/mL, the IFNa2 level (control 11.65) was 13.12 pg/mL and the IL-10 level (control 14.79, p = 0.0007) was 57.4 pg/mL and 57.47 pg/mL. It also gave a TNFb level (control 21.66, p = 0.015) of 30.56 pg/mL, an IL-1a level (control 22.02) of 53.04 pg/mL and a Fractalkine level (control 22.95) of 31.4 pg/mL. The MIP-1a level (control 27.72, p = 0.11) was 3622 pg/mL, the IL-1b level (control 29.14, p = 0.0072) was 104 pg/mL and 104.8 pg/mL and the “IL-12 (p40) level” value (control 34.49) was 56.57 pg/mL. The M-GSF level (control 35.52) was 157.86 pg/mL, the IL-1RA level (control 42.52) was 108.8 pg/mL and the IL-13 level (control 42.56) was 52.71 pg/mL. The FGF-2 level (control 48.6) was 52.5 pg/mL, the IL-22 level (control 48.87, p = 0.029) was 71 pg/mL and 71.9 pg/mL and the MIP-1b level (control 49.37, p = 0.017) was >3455↑ pg/ml. For the same substance, the TNFa level (control 87.19, p = 0.019) was 306 pg/mL and 306.44 pg/mL, the IL-27 level (control 88.48) was 119.16 pg/mL and the sCD40L level (control 92.05) was 88.6 pg/mL. It also gave a G-CSF level (control 181.87, p = 0.012) of 1150 pg/mL, an IP-10 level (control 191.78) of 3346 pg/mL and a PDGF-AA level (control 243.05) of 189.29 pg/mL. The MIG level (control 306.48, p = 0.0018) was 959 pg/mL and 959.23 pg/mL, the PDGF-AB/BB level (control 692.27) was 713.51 pg/mL and the MCP-3 level (control 707.64) was 4706 pg/mL. The VEGFa level (control 1586) was 2190 pg/mL, the IL-6 level (control 2266) was 5678 pg/mL and the MDC level (control 4385) was 1264 pg/mL. For the same substance, the GROa level (control 4827) was 4862 pg/mL, the MCP-1 level (control 12186) was 5364 pg/mL and the IL-8 level (control 15625) was 19839 pg/mL. The IL-7 level (control <0.30) was <0.30↓ pg/ml, the IL-5 level (control <0.35) was <0.35↓ pg/ml and the IL-3 level (control <0.55) was <0.55↓ pg/ml. For the same substance, the RANTES level (control <0.64) was 729.59 pg/mL, the IL-17A level (control <0.70) was 2.63 pg/mL and the “IL-12 (p70) level” value (control <1.71) was 2.3 pg/mL. The Eotaxin level (control <2.91) was <2.91↓ pg/ml, the IL-17F level (control <12.19) was <12.19↓ pg/ml and the IL-17E/IL-25 level (control <19.43) was <19.43↓ pg/ml.

Source: paper PMC10526274, “Epithelial-Immune Cell Crosstalk Determines the Activation of Immune Cells In Vitro by the Human Cathelicidin LL-37 at Low Physiological Concentrations” (Biomolecules, 2023)
